# Reference: US20120202840A1, “Use of Flubendazole and Vinca Alkaloids for Treatment of Hematological Diseases” (priority 2009, published 2012)
# Legend:
# [1] = system: bovine tubulin; assay: Tubulin polymerization assay; type: biochemical; conditions: cell-free, bovine tubulin 1.8 mg/ml; flubendazole 100 μM
# Procedure: (§1) A representative figure is shown.
# Polymerization of bovine tubulin was measured according to Beyer et al^28. Briefly, bovine tubulin (1.8 mg/ml; Cytoskeleton; Denver, USA) was added to ice cold polymerization buffer (PEM; 80 mM PIPES, 0.5 mM EGTA, 2 mM MgCl2, 10% glycerol and 1 mM GTP) and centrifuged at top speed in a microcentrifuge for 5 min at 4° C. […] Following addition of tubulin, the plate was immediately placed in the spectrophotometer, which was maintained at 37° C., and the absorbance measured every 3 minutes for 2.5 h at 340 nm.
# [2] = system: OCI-AML2 cells; assay: MTS cell growth and viability assay, OCI-AML2; type: cell-based; conditions: OCI-AML2 cells, FIG. 1A
# Procedure: (A) OCI-AML2 cells were treated for 72 h with increasing concentrations of benzimidazoles. After incubation, cell growth and viability was measured by the MTS assay. Data represent the mean percentage of viable cells ±SD from a representative experiment.
# [3] = system: leukemia cell lines; assay: Screen of library of 110 drugs for cytotoxicity; type: cell-based
# Procedure: OCI-AML2 leukemia cells were treated with increasing concentrations of 8 benzimidazoles. Seventy two hours after incubation, cell growth and viability was measured by the MTS assay.
# [4] = system: bovine tubulin; assay: Site of binding to tubulin (colchicine-tubulin fluorescence); conditions: tubulin 5.0 μM, 100 μM drug 30 min, then colchicine 10 μM 60 min
# Procedure: (C) Tubulin (5.0 μM) was incubated for 30 min with 100 μM vinblastine, 100 μM flubendazole, or buffer control. […] A representative figure is shown.
# The site of flubendazole binding was determined similar to Gupta et al^19. Bovine tubulin (5.0 μM) was incubated with 100 μM flubendazole, 100 μM vinblastine or buffer control for 30 min at 37° C.
# [5] = system: CEM; assay: MTS cell growth and viability assay, CEM; type: cell-based; conditions: 3 replicates
# Procedure: (§2) Leukemia (U937, MDAY, CEM, CEM-VBL) and solid tumor cell lines (PPC-1, HeLa) were cultured in RPMI 1640 medium. The epidermoid carcinoma cell lines KB-3-1 and KB-4.0-HTI^23 were grown in Dulbecco's Modified Eagle Medium. The lung carcinoma cell lines A549 and A549.EpoB40 were grown in RPMI with the latter supplemented with 20% fetal calf serum (FCS), and 40 nM epothilone B.^24 Leukemia cell lines OCI-AML2, CEM, and NB4 and all the myeloma cell lines (OPM2, KMS11, JJN3 LP1, H929, L1, KMS12, KSM18 and OCI My5) were maintained in Iscove's Modified Dulbecco's Medium (IMDM). TEX cells were maintained in IMDM, 15% FCS, 1% penicillin-streptomycin, 2 mM L-glutamine, 20 ng/mL SCF, 2 ng/mL IL-3. Unless otherwise noted, all media were supplemented with 10% FCS, 100 units/mL of streptomycin and 100 μg/mL of penicillin (all from Hyclone, Logan, Utah). Cells were incubated in a humidified air atmosphere containing 5% CO2 at 37° C.
# (§3) Cell growth and viability was measured using the 3-(4,5-dimethylthiazol-2-yl)-5-(3-carboxymethoxyphenyl)-2-(4-sulfophenyl)-2H-tetrazolium inner salt (MTS) reduction assay (Promega, Madison, Wis.) according to the manufacture's protocol and as previously described^25. Cells were seeded in 96 well plates and treated with drug for 72 h. Optical density (OD) was measured at 490 nm.
# [6] = system: bovine tubulin; assay: Measurement of tubulin sulfhydryl groups (DTNB); type: biochemical; conditions: flubendazole 100 μM, vinblastine 10 μM
# Procedure: as §1
# The ability of microtubule target drugs to alter tubulin structure was assessed by measuring the number of reactive cysteine residues using the sulfhydryl reagent 5,5′-Dithio-bis(2-nitrobenzoic acid) (DTNB; Sigma) as previously described^19,29. […] After incubation, DTNB was added (100 μM final concentration) and the absorbance was measured in a 1 cm path length cuvette at 412 nm for 60 min at 37° C. The number of sulfhydryl groups were determined by using a molar extinction coefficient for DTNB of 13 600 (M^−1, cm^−1).^29
# [7] = system: OCI-AML2 cells; conditions: after 16 days of treatment; flubendazole 15 mg/kg, vinblastine 0.3 mg/kg
# Procedure: Sub-lethally irradiated SCID mice were injected subcutaneously with OCI-AML2 cells (n=20; 10 per group). After implantation, mice were treated with 50 mg/kg flubendazole (A), 20 mg/kg flubendazole (B), or vehicle control by intraperitoneal injection daily. Tumor volume was measured over time. After 16 days (20 mg/kg dose) or 18 days (50 mg/kg dose), mice were sacrificed and tumors were excised, measured and weighted.
# Sub-lethally irradiated SCID mice were injected subcutaneously with OCI-AML2 cells (n=40; 10 per group). […] After 16 (C) or 18 (D) days, mice were sacrificed and tumors were excised, measured and weighted. Data represent the mean±SD tumor weight.
# Sub-lethally irradiated SCID mice were injected subcutaneously in the left flank with leukemia OCI-AML2 (2.0×10^6) or myeloma OPM2 (1.0×10^7) cells. Mice were then randomly assigned to receive flubendazole (in 0.9% NaCl and 0.01% tween-80) or vehicle control (0.9% NaCl and 0.01% tween-80) intraperitoneally. […] Tumor volumes (tumor length×width^2×0.5236) were monitored daily using calipers. At the end of the experiment (16-18 days), mice were sacrificed, tumors excised and tumor volume and weight measured. All animal studies were carried out according to the regulations of the Canadian Council on Animal Care and with the approval of the local ethics review board.
# [8] = system: CEM-VBL; assay: MTS assay, CEM-VBL (Pgp over-expressing); type: cell-based
# Procedure: Over-expression of P-glycoprotein (Pgp, MDR1) renders cells resistant to vinca alkaloid microtubule inhibitors.^43 Therefore, the effects of Pgp over-expression on flubendazole's cytotoxicity were tested. CEM-VBL cells over-express Pgp,^44 which was confirmed with a rhodamine dye exclusion assay. CEM wild type and CEM-VBL cells were treated with increasing concentrations of flubendazole or vinblastine and cell viability measured by the MTS assay (Table 1). […] In contrast, CEM-VBL cells over-expressing Pgp were resistant to vinblastine at concentrations greater than 5.0 μM (Table 1).
# as §2, §3
# [9] = system: advanced solid tumors; conditions: Phase I, cited from earlier work
molecule,measurement,setting,value
c1ccc2[nH]c(-c3cscn3)nc2c1 [thiabendazole],effect on tubulin polymerization / microtubule formation,[1],did not inhibit microtubule formation
same,induction of cell death,[2],did not induce cell death
COC(=O)Nc1nc2ccc(C(=O)c3ccccc3)cc2[nH]1 [mebendazole],cytotoxicity in library screen,[3],cytotoxic
vinblastine,colchicine fluorescence (colchicine binding to tubulin),[4],had no effect
same,IC50,[5],140 ± 10 nM
same,reduction in number of reactive cysteines compared to buffer control,[6],8.6±2.5
same,mouse body weight,[7],does not affect mouse body weight
same,IC50,"[8]; CEM-VBL, 3 replicates",> 5000 nM
same,sensitivity of CEM-VBL cells compared to wild type controls,[8]; Pgp over-expression,resistant
CCCSc1ccc2nc(NC(=O)OC)[nH]c2c1 [albendazole],patients with severe neutropenia,[9]; 7 patients,3 patients
same,patients with reduced levels of the tumor markers AFP and CEA,[9]; advanced solid tumors,2 of 7
"c1ccc2[nH]cnc2c1 [1,3-benzidiazole]",effect on tubulin polymerization / microtubule formation,[1],did not inhibit microtubule formation
same,induction of cell death,[2],did not induce cell death
